Test results reported in ChEMBL document CHEMBL5338818, “Discovery of the First Potent, Selective, and In Vivo Efficacious Polo-like Kinase 4 Proteolysis Targeting Chimera Degrader for the Treatment of TRIM37-Amplified Breast Cancer” (J Med Chem, 2023).
Active and inactive are the calls of the source. The rule behind the calls is not given here.

Key:
[1] = target: T1, Protein cereblon/Serine/threonine-protein kinase PLK4 (Homo sapiens, UniProt O00444+Q96SW2); experiment: Protac activity at CRBN/PLK4 in human MCF7 cells at 1 to 10 nM by Western blot analysis; assay type: cell-based; settings: dose 1-10 nM, time 6-72 hrs, TDE = time-dependent effect
T1 sequence (Q96SW2 whole entry, looked up, one chain of several): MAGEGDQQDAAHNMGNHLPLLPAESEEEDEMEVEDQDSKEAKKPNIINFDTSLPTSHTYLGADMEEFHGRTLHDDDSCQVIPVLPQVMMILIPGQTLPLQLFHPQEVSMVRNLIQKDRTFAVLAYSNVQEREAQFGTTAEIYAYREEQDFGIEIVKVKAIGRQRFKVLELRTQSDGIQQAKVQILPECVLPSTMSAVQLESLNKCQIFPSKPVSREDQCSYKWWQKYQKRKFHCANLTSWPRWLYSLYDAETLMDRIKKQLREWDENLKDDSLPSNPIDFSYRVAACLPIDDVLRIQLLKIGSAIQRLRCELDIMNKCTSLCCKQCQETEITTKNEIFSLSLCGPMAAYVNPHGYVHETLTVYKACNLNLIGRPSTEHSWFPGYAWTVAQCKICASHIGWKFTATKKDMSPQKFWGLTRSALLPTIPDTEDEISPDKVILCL

MCF7 = experiment: Antiproliferative activity against human MCF7 cells incubated for 5 days by CCK-8 assay; settings: MCF7, 120 h
[2] = target: T2, Serine/threonine-protein kinase PLK4 (Homo sapiens, UniProt O00444); experiment: Inhibition of PLK4 (unknown origin) incubated for 1 hr in presence of kinase tracer 236 by FRET assay
T2 sequence (O00444 whole entry): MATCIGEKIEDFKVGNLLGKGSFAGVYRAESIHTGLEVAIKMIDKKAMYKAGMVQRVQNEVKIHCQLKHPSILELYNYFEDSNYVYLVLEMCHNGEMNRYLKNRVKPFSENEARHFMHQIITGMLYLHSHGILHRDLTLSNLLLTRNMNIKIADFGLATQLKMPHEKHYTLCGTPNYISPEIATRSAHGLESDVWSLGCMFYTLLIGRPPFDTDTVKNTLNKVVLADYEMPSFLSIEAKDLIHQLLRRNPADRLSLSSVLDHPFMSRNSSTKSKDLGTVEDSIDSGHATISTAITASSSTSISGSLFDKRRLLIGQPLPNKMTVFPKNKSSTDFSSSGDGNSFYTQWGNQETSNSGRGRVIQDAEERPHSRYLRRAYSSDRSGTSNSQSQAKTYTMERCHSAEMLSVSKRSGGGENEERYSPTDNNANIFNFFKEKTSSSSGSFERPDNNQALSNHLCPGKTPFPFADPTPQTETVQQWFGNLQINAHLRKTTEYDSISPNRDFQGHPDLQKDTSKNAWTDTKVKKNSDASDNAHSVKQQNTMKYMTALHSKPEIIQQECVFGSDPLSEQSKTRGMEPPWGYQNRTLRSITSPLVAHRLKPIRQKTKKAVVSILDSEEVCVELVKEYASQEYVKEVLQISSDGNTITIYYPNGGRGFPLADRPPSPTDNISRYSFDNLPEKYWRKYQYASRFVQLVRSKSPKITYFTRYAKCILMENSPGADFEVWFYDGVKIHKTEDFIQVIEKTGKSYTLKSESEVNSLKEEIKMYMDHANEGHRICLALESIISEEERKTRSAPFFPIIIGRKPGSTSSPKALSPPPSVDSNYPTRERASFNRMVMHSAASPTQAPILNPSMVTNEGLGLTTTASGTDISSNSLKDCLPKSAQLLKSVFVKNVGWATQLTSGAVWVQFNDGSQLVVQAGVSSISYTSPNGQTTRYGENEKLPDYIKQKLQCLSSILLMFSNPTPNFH

[3] = target: T1, Protein cereblon/Serine/threonine-protein kinase PLK4; experiment: Protac activity at CRBN/PLK4 in human MCF7 cells at 0.1 uM incubated for 48 hrs by Western blot analysis; assay type: cell-based
[4] = target: T1, Protein cereblon/Serine/threonine-protein kinase PLK4; experiment: Protac activity at CRBN/PLK4 in human MCF7 cells at 1 uM incubated for 48 hrs by Western blot analysis; assay type: cell-based
[5] = target: T1, Protein cereblon/Serine/threonine-protein kinase PLK4; experiment: Protac activity at CRBN/PLK4 in human MCF7 cells at 10 uM incubated for 48 hrs by Western blot analysis; assay type: cell-based
[6] = target: T1, Protein cereblon/Serine/threonine-protein kinase PLK4; experiment: Protac activity at CRBN/PLK4 in human MCF7 cells at 10 uM by Western blot analysis; assay type: cell-based

SMILES	Activity [1]	IC50 (MCF7) [µM]	IC50 [2] [µM]	Activity [3] [%]	Activity [4] [%]	Activity [5] [%]	Activity [6]
Cc1cc(Nc2nc(NCc3ccc(F)cc3F)nc3c2cnn3C2CCN(C(=O)CCCOc3ccc4c(c3)C(=O)N(C3CCC(=O)NC3=O)C4=O)CC2)n[nH]1 (configuration not stated)	Tde	2.15	0.0015	44.6	53.1	65.8	
Cc1cc(Nc2nc(NCc3ccc(F)cc3F)nc3c2cnn3C2CCN(C(=O)C3CCN(c4ccc5c(c4)C(=O)N(C4CCC(=O)N(C)C4=O)C5=O)CC3)CC2)n[nH]1 (configuration not stated)							inactive
